Patent EP4692082A1, “CRYSTAL FORM OF 2,6-PIPERIDINEDIONE COMPOUND, AND PREPARATION METHOD THEREFOR AND USE THEREOF” (Zhangzhou Pien Tze Huang Pharmaceutical Co., Ltd., priority 2023, dated 2024)
Where a name gives a salt, the structure may show the parent alone.

Experiments:
[1] = Pharmacokinetic evaluation in beagle dogs; type: in vivo; settings: Beagle dogs (fed)
Text: Male beagle dogs were selected as the experimental animals in this study. The LC/MS/MS method was employed to quantitatively determine the plasma drug concentrations at different time points after intravenous injection or intragastric administration of the test compound, aiming to evaluate the pharmacokinetic characteristics of the compound of the present disclosure in beagle dogs.
Beagle dogs (male, 7 to 10 kg, Beijing Mars Biotechnology Co., Ltd.).
A solution of the test compound was slowly injected intravenously into beagle dogs (fed) via the peripheral vein (vehicle: 5% DMSO/10% Solutol/85% H2O), or administered intragastrically to beagle dogs (fed). For intravenous administration, 0.5 mL of blood was collected from the peripheral vein at 0.083, 0.25, 0.5, 1, 2, 4, 6, 8, and 24 h after administration, placed in EDTA-2K anticoagulant tubes, and centrifuged at 3200 g for 10 minutes at 2 to 8°C to separate the supernatant. For intragastric administration, 0.5 mL of blood was collected from the peripheral vein at 0.083, 0.25, 0.5, 1, 2, 4, 6, 8, and 24 h after administration, placed in EDTA-2K anticoagulant tubes, and centrifuged at 3200 g for 10 minutes at 2 to 8°C to separate the supernatant. Plasma drug concentrations were determined by the LC-MS/MS method, and relevant pharmacokinetic parameters were calculated using Phoenix WinNonlin 6.3 or 8.3.5 pharmacokinetic software with non-compartmental model linear-log trapezoidal method.

IKZF1 = IKZF1 (Homo sapiens, UniProt Q13422+Q96SW2); assay: In cell western analysis of IKZF1 protein expression level in MM.1S cells
Procedure: (§1) • 1) MM.1S cells in the logarithmic growth phase were seeded into a 96-well plate at 1.2x10^5 cells per well and cultured overnight. • 2) On the second day, drug treatment was initiated with a starting concentration of 300 nM, followed by a 3-fold dilution in triplicate wells, with 10 concentration gradients (containing DMSO), and incubated for 24 hours in a culture incubator. • 3) The mixture was centrifuged, and the cell supernatant was carefully removed. […] The mixture was incubated at room temperature on a shaker for 5 min. • 12) The washing step was repeated 4 times. • 13) The secondary antibody diluent was prepared by adding Tween 20 to the Licor [sequence] blocking buffer at a final concentration of 0.2%. • 14) The fluorescent secondary antibody was diluted in the dark (1:800 dilution). To 400 µL of the secondary antibody diluent, 0.5 µLeach of IRDye 800CW and IRDye 680CW was added (the corresponding fluorescent secondary antibody for the primary antibody). • 15) 50 µL of the diluted fluorescent secondary antibody was added to each well, followed by incubation at room temperature on a shaker in the dark for 60 min. • 16) The secondary antibody was removed, and 200 µL of PBST was added along the well wall without touching the bottom cells. […]
(§2) GraphPad Prism 6 software was utilized to fit the curve with the inhibition rate data, and the DC50 value was calculated.

IRAK4 = biological target: T1, IRAK4 (Homo sapiens, UniProt Q9NWZ3); assay: Target protein degradation in K562 IRAK4-HiBiT cells (Nano-Glo HiBiT); type: cell-based
T1 construct: expressed in transfected cells; host or cells: K562 IRAK4-HiBiT cells
T1 sequence (Q9NWZ3 1-460): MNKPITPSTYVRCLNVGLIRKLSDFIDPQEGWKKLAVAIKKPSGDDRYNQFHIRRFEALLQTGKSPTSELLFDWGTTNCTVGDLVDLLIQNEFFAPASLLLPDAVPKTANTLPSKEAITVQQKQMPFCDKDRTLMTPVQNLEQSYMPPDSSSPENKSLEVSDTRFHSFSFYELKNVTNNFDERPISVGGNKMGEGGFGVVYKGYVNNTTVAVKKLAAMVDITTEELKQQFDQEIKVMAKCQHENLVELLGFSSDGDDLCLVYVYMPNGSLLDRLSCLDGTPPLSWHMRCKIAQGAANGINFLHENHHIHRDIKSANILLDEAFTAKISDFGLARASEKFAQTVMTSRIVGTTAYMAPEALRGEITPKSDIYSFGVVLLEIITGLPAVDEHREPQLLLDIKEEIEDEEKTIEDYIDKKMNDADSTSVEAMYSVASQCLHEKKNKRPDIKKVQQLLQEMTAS
Procedure: • Cells: K562 IRAK4-HiBiT cells • Culture medium: RPMI 1640 + 10% fetal bovine serum + 2 mM glutamine + 1 mM sodium pyruvate + penicillin/streptomycin • Positive control: 1000 nM; negative control: 0.1% DMSO Table 6. Reagents and consumables […]
• (1) The cell culture medium was discarded, and the cells were washed once with DPBS, digested with trypsin, and counted to prepare a cell suspension of […]. • (2) 25 µL/well of cell suspension was added to the assay plate containing the test compound using Multidrop Combi at medium speed. • (3) The assay plate containing cells was returned to an incubator with 5% CO2 at 37°C and incubated for 16 to 18 hours.
• (1) 25 µL/well of assay reagent (NanoGlo lysis buffer + substrate + LgBit protein) was added to the assay plate using Multidrop Combi at high speed, and the plate was shaken for 10 minutes. • (2) The plate was centrifuged at 2000 rpm for 1 minute to remove air bubbles. • (3) The plate was read on Envision using US Luminescence detection method.
The degradation rate (DR) of the test compound was calculated using the following formula: DR (%) = (RLU vehicle control - RLU compound)/(RLU vehicle control - RLU positive control)*100%, where the vehicle control served as the blank control. […]

[2] = Pharmacokinetic evaluation in mice; type: in vivo, C57BL/6 or C57 mice
Text: C57BL/6 or C57 male mice were selected as the test animals for this study. The LC/MS/MS method was employed to quantitatively determine the plasma drug concentrations at various time points after intravenous injection or intragastric administration of the test compound, aiming to evaluate the pharmacokinetic characteristics of the compound of the present disclosure in mice.
C57BL/6 or C57 mice (male, 20 to 30g, 7 to 10 weeks old, Beijing Vital River).
A clear solution of the test compound was injected intravenously into the tail vein of C57BL/6 mice (fasted overnight) (vehicle: 10% DMSO/10% solutol/80% H2O), or administered intragastrically to C57 mice (fed). […] The mixture was thoroughly vortexed and mixed, and centrifuged at 6000 g for 3 minutes at 2 to 8°C. […] The mixture was thoroughly vortexed and mixed, and centrifuged at 6000 g for 3 minutes at 2 to 8°C. Plasma drug concentrations were determined by the LC-MS/MS method, and relevant pharmacokinetic parameters were calculated using Phoenix WinNonlin 8.2.0 pharmacokinetic software with non-compartmental model linear-log trapezoidal method. Table 20. Pharmacokinetic parameters of the compound of the present disclosure in mice

IKZF3 = IKZF3 (Homo sapiens, UniProt Q96SW2+Q9UKT9); assay: In cell western analysis of IKZF3 protein expression level in MM.1S cells
Procedure: as §1, §2

[3] = Intragastric Administration, 5 mg/kg
[4] = Intragastric Administration, 15 mg/kg
[5] = Intravenous Injection (0.5 mg/kg)
[6] = MM1.S, read-out: Maximum Degradation Rate Dmax
[7] = Intragastric administration (10 mg/kg) (fed)

IKZF1, sequence (Q13422 whole entry): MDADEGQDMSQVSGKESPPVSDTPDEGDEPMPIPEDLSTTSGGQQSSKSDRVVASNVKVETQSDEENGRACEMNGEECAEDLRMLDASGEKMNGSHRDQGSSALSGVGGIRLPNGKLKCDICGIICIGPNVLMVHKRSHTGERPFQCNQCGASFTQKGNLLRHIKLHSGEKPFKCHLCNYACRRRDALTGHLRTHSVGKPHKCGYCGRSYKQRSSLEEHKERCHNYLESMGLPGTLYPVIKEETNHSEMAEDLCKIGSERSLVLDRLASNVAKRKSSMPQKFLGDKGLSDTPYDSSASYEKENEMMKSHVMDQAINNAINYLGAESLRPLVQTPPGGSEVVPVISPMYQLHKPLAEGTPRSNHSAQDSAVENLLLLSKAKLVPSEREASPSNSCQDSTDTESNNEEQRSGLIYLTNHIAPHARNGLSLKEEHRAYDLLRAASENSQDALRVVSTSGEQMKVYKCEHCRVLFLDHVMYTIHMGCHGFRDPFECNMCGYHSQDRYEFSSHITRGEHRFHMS
IKZF1, sequence (Q96SW2 whole entry): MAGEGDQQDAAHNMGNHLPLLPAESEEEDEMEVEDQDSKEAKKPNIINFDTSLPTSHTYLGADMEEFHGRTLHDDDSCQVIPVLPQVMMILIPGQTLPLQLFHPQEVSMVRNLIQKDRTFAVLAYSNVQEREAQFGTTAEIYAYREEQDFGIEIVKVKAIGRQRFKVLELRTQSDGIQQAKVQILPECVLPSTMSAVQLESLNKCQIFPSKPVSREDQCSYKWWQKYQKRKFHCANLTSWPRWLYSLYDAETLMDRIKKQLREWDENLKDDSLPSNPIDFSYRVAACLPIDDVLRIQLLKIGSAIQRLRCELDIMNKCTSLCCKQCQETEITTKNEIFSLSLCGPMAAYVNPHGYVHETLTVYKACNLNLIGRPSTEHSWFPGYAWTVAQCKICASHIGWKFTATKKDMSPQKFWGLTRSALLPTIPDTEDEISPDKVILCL
IKZF1, sequence (Q16531 whole entry partner): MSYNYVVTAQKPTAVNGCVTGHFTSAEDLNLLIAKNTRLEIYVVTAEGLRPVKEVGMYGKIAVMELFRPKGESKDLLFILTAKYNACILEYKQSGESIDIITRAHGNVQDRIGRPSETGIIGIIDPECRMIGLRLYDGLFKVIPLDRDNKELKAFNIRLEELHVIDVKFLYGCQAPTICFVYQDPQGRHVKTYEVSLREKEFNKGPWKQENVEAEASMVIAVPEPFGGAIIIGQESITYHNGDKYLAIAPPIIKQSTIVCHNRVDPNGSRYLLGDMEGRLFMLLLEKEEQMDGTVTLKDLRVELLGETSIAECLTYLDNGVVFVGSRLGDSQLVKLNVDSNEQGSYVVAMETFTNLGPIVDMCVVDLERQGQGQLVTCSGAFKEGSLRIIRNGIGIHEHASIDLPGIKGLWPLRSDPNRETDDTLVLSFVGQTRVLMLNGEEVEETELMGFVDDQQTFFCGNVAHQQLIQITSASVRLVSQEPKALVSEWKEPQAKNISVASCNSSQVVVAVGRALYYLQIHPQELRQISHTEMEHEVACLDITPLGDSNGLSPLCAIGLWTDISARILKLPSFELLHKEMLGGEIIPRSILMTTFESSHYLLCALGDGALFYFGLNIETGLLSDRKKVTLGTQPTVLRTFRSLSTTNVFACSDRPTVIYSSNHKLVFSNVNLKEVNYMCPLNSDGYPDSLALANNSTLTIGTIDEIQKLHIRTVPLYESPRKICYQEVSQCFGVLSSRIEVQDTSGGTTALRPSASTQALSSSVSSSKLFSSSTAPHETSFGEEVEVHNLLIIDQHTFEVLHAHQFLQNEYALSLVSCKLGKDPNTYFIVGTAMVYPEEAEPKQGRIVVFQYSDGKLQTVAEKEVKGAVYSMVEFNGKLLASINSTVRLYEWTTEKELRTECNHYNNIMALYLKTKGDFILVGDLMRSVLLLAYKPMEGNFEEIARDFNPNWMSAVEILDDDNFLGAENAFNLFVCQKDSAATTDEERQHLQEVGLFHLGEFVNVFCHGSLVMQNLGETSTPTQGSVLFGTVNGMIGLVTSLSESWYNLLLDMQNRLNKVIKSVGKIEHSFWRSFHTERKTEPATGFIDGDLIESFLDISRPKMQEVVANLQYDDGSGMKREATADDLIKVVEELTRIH
IKZF3, sequence (Q9UKT9 whole entry): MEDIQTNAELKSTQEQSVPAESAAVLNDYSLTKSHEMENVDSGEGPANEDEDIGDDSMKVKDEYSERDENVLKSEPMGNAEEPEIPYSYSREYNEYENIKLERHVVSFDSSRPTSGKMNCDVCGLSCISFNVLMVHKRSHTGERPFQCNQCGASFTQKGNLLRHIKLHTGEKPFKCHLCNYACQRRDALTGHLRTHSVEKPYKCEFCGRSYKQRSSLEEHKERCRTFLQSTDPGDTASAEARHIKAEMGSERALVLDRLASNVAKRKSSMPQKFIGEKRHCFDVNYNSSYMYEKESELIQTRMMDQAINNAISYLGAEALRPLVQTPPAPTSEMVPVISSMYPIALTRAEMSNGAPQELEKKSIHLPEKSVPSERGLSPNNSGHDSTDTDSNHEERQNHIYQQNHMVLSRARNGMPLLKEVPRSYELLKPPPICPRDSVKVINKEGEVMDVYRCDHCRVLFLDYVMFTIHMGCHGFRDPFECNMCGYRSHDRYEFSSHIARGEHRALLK
IKZF3, sequence (Q96SW2 whole entry): as the sequence (Q96SW2 whole entry) above
IKZF3, sequence (Q16531 whole entry partner): as the sequence (Q16531 whole entry partner) above

O=C1CCC(c2noc3ccc4c(NC(=O)CN5CCN(C[C@H]6CC[C@H](n7cc(NC(=O)c8coc(-c9ccnc(NCC%10CC%10)c9)n8)c(C(F)F)n7)CC6)CC5)cccc4c23)C(=O)N1 (relative stereo) [Hydrochloride of Compound of Formula (I)]
Area Under the Drug-Time Curve (0-inf) [1, 3]: 3.20 µM·h | Peak Concentration [1, 3]: 0.41 µM | Time to Peak Concentration [1, 3]: 4.00 h | Area Under the Drug-Time Curve (0-inf) [1, 4]: 8.02 µM·h | Peak Concentration [1, 4]: 0.87 µM | Time to Peak Concentration [1, 4]: 4.00 h | Apparent Distribution Volume [1, 5]: 5.83 L/kg | Area Under the Drug-Time Curve (0-inf) [1, 5]: 0.44 µM·h | DC50 (IKZF1; IKZF1, MM.1S cells, 24 hours): 23.4 nM | Dmax (IKZF1; [6]): 72.3% | Dmax (IRAK4; K562, read-out: Maximum Degradation Rate): 108% | DC50 (IRAK4; K562 IRAK4-HiBiT cells, incubated 16 to 18 hours): 4.87 nM | Area Under the Drug-Time Curve (0-inf) [2, 7]: 4.47 µM·h | Peak Concentration [2, 7]: 0.54 µM | Time to Peak Concentration [2, 7]: 1.00 h | Area Under the Drug-Time Curve (0-inf) ([2]; Intravenous Injection (2 mg/kg) (fasted)): 5.40 µM·h | DC50 (IKZF3; IKZF3, MM.1S cells, 24 hours): 20.6 nM | Dmax (IKZF3; [6]): 73.5%
